Laboratory results as given in patent publication US9580463B2 (BRISTOL-MYERS SQUIBB COMPANY, priority 2013, dated 2017).
Where two headings read alike, the source gives them in different places.

Columns and labels:
[1] = system: HCV genotype 1a (H77 strain) replicon in HUH-7 cells; assay: HCV replicon luciferase reporter assay, genotype 1a; assay type: cell-based; conditions: Hepatitis C virus, 72 h, genotype 1a replicon, 3 days incubation
From the text: An HCV replicon whole cell system was established as described by Lohmann V, Korner F, Koch J, Herian U, Theilmann L, Bartenschlager R., Science 285(5424):110-3 (1999) and modified to introduce a luciferase reporter, as first described by Krieger et al (Krieger N, Lohmann V, and Bartenschlager R, J. Virol. 75(10):4614-4624 (2001)). CDNA encoding a humanized form of the Renilla luciferase gene and a linker sequence fused directly to the 3′-end of the luciferase gene were introduced into the replicon construct using an Asc1 restriction site located in core, directly upstream of the neomycin marker gene. The adaptive mutation at position 1179 (serine to isoleucine) was also introduced (Blight K J, Kolykhalov, A A, Rice, C M, Science 290(5498):1972-1974). A stable cell line constitutively expressing this HCV replicon construct was generated by first linearizing plasmid DNAs with ScaI. RNA transcripts were synthesized in vitro using the T7 MegaScript transcription kit (Ambion, Austin, Tex.) according to manufacturer's directions. In vitro transcripts of the cDNA were transfected into the human hepatoma cell line, HUH-7. […] Resulting cell lines were characterized for positive and negative strand RNA production and protein production over time.
A stable HCV replicon luciferase reporter cell line representing the genotype 1a H77 strain (Yanagi M, Purcell R H, Emerson S U, et al. Transcripts from a single full-length cDNA clone of hepatitis C virus are infectious when directly transfected into the liver of a chimpanzee. Proc Natl Acad Sci USA 1997; 94(16):8738-8743) was generated as described previously for the genotype 1b (Con1) replicon luciferase cell line. The replicon construct was modified by introducing mutations were introduced into the genes encoding the NS3 helicase domain (proline replaced by leucine at position 1496) and NS5A (serine to isoleucine at position 2204) to improve replication in cell culture.
HCV replicon luciferase assays were developed to monitor the inhibitory effects of compounds described in the disclosure on HCV genotypes 1a and 1b viral replication. HUH-7 cells, constitutively expressing the HCV replicon, were grown in Dulbecco's Modified Eagle Media (DMEM) (Gibco-BRL) containing 10% Fetal calf serum (FCS) (Sigma) and 1 mg/mL G418 (Gibco-BRL). Compounds were serially diluted 3 folds in DMSO for a twenty-point titration and subsequently transferred to sterile 384-well tissue-culture treated plates (Corning cat #3571). The plates were then seeded with 50 μL of cells at a density of 3.0×10^3 cells/well in DMEM containing 4% FCS (final DMSO concentration at 0.5%). After 3 days incubation at 37° C., cells were analyzed for Renilla Luciferase activity using the EnduRen as substrate (Promega cat #E6485). The EnduRen substrate was diluted in DMEM and then added to the plates to a final concentration of 7.5 μM. The plates were incubated for 2 hrs at 37° C. and then read immediately for 30 seconds with Viewlux Imager (PerkinElmer) using a luminescence program. To assess cytotoxicity of compounds, CC50 values were generated by multiplexing the EnduRen-containing plates with Cell Titer-Blue (Promega, cat # G8082). Cell-Titer Blue (3 μL) was added to each well and incubated for 8 hrs at 37° C. The fluorescence signal from each well was read, with an excitation wavelength at 525/10 nm and an emission wavelength of 598/10 nm, using the Viewlux Imager.
The EC50 values for compounds were calculated by using a four-parameter logistic equation: y=A+((B−A)/(1+((C/x)^D))), where A and B denotes minimal and maximal % inhibition, respectively, C is the EC50, D is the hill slope and x represents compound concentration.

[2] = system: HCV genotype 1b (Con1) replicon in HUH-7 cells; assay: HCV replicon luciferase reporter assay, genotype 1b; assay type: cell-based; conditions: Hepatitis C virus, 72 h, genotype 1b replicon, 3 days incubation
Method in brief: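 Twenty-point, threefold compound titrations (0.5% DMSO) were incubated 3 days at 37 °C with 3.0×10^3 HUH-7 cells/well in 4% FCS. The cells stably carried luciferase replicons: genotype 1b Con1 (S1179I) or 1a H77 (NS3 P1496L, NS5A S2204I). Renilla signal was read after 2 h with 7.5 μM EnduRen, and EC50 was taken from a four-parameter logistic fit. Cytotoxicity (CC50) was measured by Cell Titer-Blue, 8 h.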

COC[C@@H]1C[C@@H](C)CC/C=C\[C@@H]2C[C@@]2(C(=O)NS(=O)(=O)C2CC2)NC(=O)[C@@H]2C[C@@H](Oc3nc4cc(OC)ccc4nc3C(F)(F)F)CN2C(=O)[C@H]1NC(=O)OC(C)(C)C(F)(F)F [Compound 1042, 1,1,1-trifluoro-2-methylpropan-2-yl ((2R,6S,7R,9S,13aS,14aR,16aS,Z)-14a-((cyclopropylsulfonyl)carbamoyl)-2-((7-methoxy-3-(trifluoromethyl)quinoxalin-2-yl)oxy)-7-(methoxymethyl)-9-methyl-5,16-dioxo-1,2,3,5,6,7,8,9,10,11,13a,14,14a,15,16,16a-hexadecahydrocyclopropa[e]pyrrolo[1,2-a][1,4]diazacyclopentadecin-6-yl)carbamate]
EC50 ([1]; read-out: LE_1a (EC50, range)): 5.01 to 35 nM | EC50 ([2]; read-out: LE_1b (EC50, range)): 1.01 to 5 nM

COC[C@@H]1CCCC/C=C\[C@@H]2C[C@@]2(C(=O)NS(=O)(=O)C2CC2)NC(=O)[C@@H]2C[C@@H](Oc3nccc4cc(OC)c(F)cc34)CN2C(=O)[C@H]1NC(=O)OC(C)(C)C [Compound 1022]
EC50 ([1]; read-out: LE_1a (EC50, range)): 1.01 to 5 nM | EC50 ([2]; read-out: LE_1b (EC50, range)): 1.01 to 5 nM

COC[C@@H]1C[C@@H](C)CC/C=C\[C@@H]2C[C@@]2(C(=O)NS(=O)(=O)C2(C)CC2)NC(=O)[C@@H]2C[C@@H](Oc3nc4cc(OC)ccc4nc3C(F)(F)F)CN2C(=O)[C@H]1NC(=O)OC(C)(C)C(F)(F)F [Compound 1031, 1,1,1-trifluoro-2-methylpropan-2-yl ((2R,6S,7R,9S,13aS,14aR,16aS,Z)-2-((7-methoxy-3-(trifluoromethyl)quinoxalin-2-yl)oxy)-7-(methoxymethyl)-9-methyl-14a-(((1-methylcyclopropyl)sulfonyl)carbamoyl)-5,16-dioxo-1,2,3,5,6,7,8,9,10,11,13a,14,14a,15,16,16a-hexadecahydrocyclopropa[e]pyrrolo[1,2-a][1,4]diazacyclopentadecin-6-yl)carbamate]
EC50 ([1]; read-out: LE_1a (EC50, range)): 5.01 to 35 nM | EC50 ([2]; read-out: LE_1b (EC50, range)): 1.01 to 5 nM

COC[C@@H]1C[C@H](C)CC/C=C\[C@@H]2C[C@@]2(C(=O)NS(=O)(=O)C2(CF)CC2)NC(=O)[C@@H]2C[C@@H](Oc3nc4cc(OC)ccc4nc3C(C)C)CN2C(=O)[C@H]1NC(=O)OC(C)(C)C(F)(F)F [Compound 1039]
EC50 ([1]; read-out: LE_1a (EC50, range)): 5.01 to 35 nM | EC50 ([2]; read-out: LE_1b (EC50, range)): 1.01 to 5 nM

COC[C@@H]1C[C@@H](C)CC/C=C\[C@@H]2C[C@@]2(C(=O)NS(=O)(=O)C2(C)CC2)NC(=O)[C@@H]2C[C@@H](Oc3nc4cc(OC)ccc4nc3C(C)C)CN2C(=O)[C@H]1NC(=O)OC(C)(C)C(F)(F)F [Compound 1033, 1,1,1-trifluoro-2-methylpropan-2-yl ((2R,6S,7R,9S,13aS,14aR,16aS,Z)-2-((3-isopropyl-7-methoxyquinoxalin-2-yl)oxy)-7-(methoxymethyl)-9-methyl-14a-(((1-methylcyclopropyl)sulfonyl)carbamoyl)-5,16-dioxo-1,2,3,5,6,7,8,9,10,11,13a,14,14a,15,16,16a-hexadecahydrocyclopropa[e]pyrrolo[1,2-a][1,4]diazacyclopentadecin-6-yl)carbamate]
EC50 ([1]; read-out: LE_1a (EC50, range)): 5.01 to 35 nM | EC50 ([2]; read-out: LE_1b (EC50, range)): 1.01 to 5 nM

COC[C@@H]1C[C@@H](C)CC/C=C\[C@@H]2C[C@@]2(C(=O)NS(=O)(=O)C2(C)CC2)NC(=O)[C@@H]2C[C@@H](Oc3ncc(OC)c4ccccc34)CN2C(=O)[C@H]1NC(=O)OC(C)(C)C(F)(F)F [Compound 1017, 1,1,1-trifluoro-2-methylpropan-2-yl ((2R,6S,7R,9S,13aS,14aR,16aS,Z)-2-((4-methoxyisoquinolin-1-yl)oxy)-7-(methoxymethyl)-9-methyl-14a-(((1-methylcyclopropyl)sulfonyl)carbamoyl)-5,16-dioxo-1,2,3,5,6,7,8,9,10,11,13a,14,14a,15,16,16a-hexadecahydrocyclopropa[e]pyrrolo[1,2-a][1,4]diazacyclopentadecin-6-yl)carbamate]
EC50 ([1]; read-out: LE_1a (EC50, range)): 1.01 to 5 nM | EC50 ([2]; read-out: LE_1b (EC50, range)): 0.51 to 1 nM

COC[C@@H]1C[C@@H](C)CC/C=C\[C@@H]2C[C@@]2(C(=O)NS(=O)(=O)C2(CF)CC2)NC(=O)[C@@H]2C[C@@H](Oc3nc4cc(OC)ccc4nc3C(C)C)CN2C(=O)[C@H]1NC(=O)OC(C)(C)C(F)(F)F [Compound 1040, 1,1,1-trifluoro-2-methylpropan-2-yl ((2R,6S,7R,9S,13aS,14aR,16aS,Z)-14a-(((1-(fluoromethyl)cyclopropyl)sulfonyl)carbamoyl)-2-((3-isopropyl-7-methoxyquinoxalin-2-yl)oxy)-7-(methoxymethyl)-9-methyl-5,16-dioxo-1,2,3,5,6,7,8,9,10,11,13a,14,14a,15,16,16a-hexadecahydrocyclopropa[e]pyrrolo[1,2-a][1,4]diazacyclopentadecin-6-yl)carbamate]
EC50 ([1]; read-out: LE_1a (EC50, range)): 35 to 620 nM | EC50 ([2]; read-out: LE_1b (EC50, range)): 35 to 620 nM

COC[C@@H]1C[C@H](C)CC/C=C\[C@@H]2C[C@@]2(C(=O)NS(=O)(=O)C2CC2)NC(=O)[C@@H]2C[C@@H](Oc3ncc(OC)c4ccccc34)CN2C(=O)[C@H]1NC(=O)OC(C)(C)C(F)(F)F [Compound 1012, 1,1,1-trifluoro-2-methylpropan-2-yl ((2R,6S,7R,9R,13aS,14aR,16aS,Z)-14a-((cyclopropylsulfonyl)carbamoyl)-2-((4-methoxyisoquinolin-1-yl)oxy)-7-(methoxymethyl)-9-methyl-5,16-dioxo-1,2,3,5,6,7,8,9,10,11,13a,14,14a,15,16,16a-hexadecahydrocyclopropa[e]pyrrolo[1,2-a][1,4]diazacyclopentadecin-6-yl)carbamate]
EC50 ([1]; read-out: LE_1a (EC50, range)): 0.51 to 1 nM | EC50 ([2]; read-out: LE_1b (EC50, range)): 0.1 to 0.5 nM

COC[C@@H]1C[C@H](C)CC/C=C\[C@@H]2C[C@@]2(C(=O)NS(=O)(=O)C2(CF)CC2)NC(=O)[C@@H]2C[C@@H](Oc3nc4cc(OC)ccc4nc3C(C)C)CN2C(=O)[C@H]1NC(=O)OC(C)(C)C [Compound 1025, tert-butyl ((2R,6S,7R,9R,13aS,14aR,16aS,Z)-14a-(((1-(fluoromethyl)cyclopropyl)sulfonyl)carbamoyl)-2-((3-isopropyl-7-methoxyquinoxalin-2-yl)oxy)-7-(methoxymethyl)-9-methyl-5,16-dioxo-1,2,3,5,6,7,8,9,10,11,13a,14,14a,15,16,16a-hexadecahydrocyclopropa[e]pyrrolo[1,2-a][1,4]diazacyclopentadecin-6-yl)carbamate]
EC50 ([1]; read-out: LE_1a (EC50)): 7.01 nM | EC50 ([1]; read-out: LE_1a (EC50, range)): 5.01 to 35 nM | EC50 ([2]; read-out: LE_1b (EC50)): 1.38 nM | EC50 ([2]; read-out: LE_1b (EC50, range)): 1.01 to 5 nM

COC[C@@H]1C[C@H](C)CC/C=C\[C@@H]2C[C@@]2(C(=O)NS(=O)(=O)C2(C)CC2)NC(=O)[C@@H]2C[C@@H](Oc3nc4cc(OC)ccc4nc3C(C)C)CN2C(=O)[C@H]1NC(=O)OC(C)(C)C(F)(F)F [Compound 1034, 1,1,1-trifluoro-2-methylpropan-2-yl ((2R,6S,7R,9R,13aS,14aR,16aS,Z)-2-((3-isopropyl-7-methoxyquinoxalin-2-yl)oxy)-7-(methoxymethyl)-9-methyl-14a-(((1-methylcyclopropyl)sulfonyl)carbamoyl)-5,16-dioxo-1,2,3,5,6,7,8,9,10,11,13a,14,14a,15,16,16a-hexadecahydrocyclopropa[e]pyrrolo[1,2-a][1,4]diazacyclopentadecin-6-yl)carbamate]
EC50 ([1]; read-out: LE_1a (EC50, range)): 1.01 to 5 nM | EC50 ([2]; read-out: LE_1b (EC50, range)): 0.51 to 1 nM
